Measurements taken from article PMC11585928, “Screening the Global Health Priority Box against Plasmodium berghei liver stage parasites using an inexpensive luciferase detection protocol” (Malaria Journal, 2024).
Read-outs that look alike come from different tables or passages of the source.

How the values were obtained:
[1] = system: HepG2 cells; assay: HepG2 cytotoxicity assay in galactose media, 72 h, hepatic nuclei count by HCI; assay type: cell-based, Homo sapiens
Experimental: To assess the general cytotoxicity of GHPB compounds, HepG2 cells were cultured in media containing galactose instead of glucose to avoid false negatives due to the Crabtree effect. Following propagation of HepG2 in T-75 flasks with glucose-containing media as above, media was aspirated, the cell monolayer was washed with PBS, and then cells were trypsinized as above. Released cells were then resuspended in media containing glucose-free DMEM (Gibco, cat 11,966–025) supplemented with 10% FBS (Corning, cat 35–016-CV), 10 mM galactose (Sigma, cat G5388), 1 mM sodium pyruvate (Corning, cat 25–000-CI), 1 × penicillin–streptomycin-neomycin mix (Gibco, cat 15,640–055), and 2 mM L-glutamine (Gibco, cat 25,030–081). The cell density was calculated using trypan blue exclusion on a haemocytometer, diluted to 50 cells/µL, and 40 µL of cells were seeded into collagen-coated 384-well plates (Greiner Bio-One, cat 781,956) using a Biomek NXp (Beckman Coulter), resulting in 2 × 10^3 cells/well. The day after seeding, plates were treated with a pin tool as above and cultured for 72 h. Plates were then fixed with 4% paraformaldehyde, stained with 10 µg/mL Hoechst 33,342, and imaged on an ImageXpress Micro Confocal. Hepatic nuclei were quantified using MetaXpress (Molecular Devices) image analysis software. Both P. berghei liver schizont and HepG2 cytotoxicity data were loaded into CDD Vault for normalization and hit selection as described above. A total of 35 compounds were identified for resupply of fresh powder for confirmation in dose–response assays. […] Powders were diluted to 50 mM in DMSO and plated in 1000 × source plates as described above. […] Separately, two independent runs of the HepG2 cultured in galactose, assayed as described above, were used to assess the cytotoxicity potency and selectivity indices for these compounds. […] Receiver-operator characteristic (ROC) curves were generated using Graphpad Prism and area under the curve (AUC) was calculated using the Wilson/Brown method for both P. berghei liver schizont activity and HepG2 cytotoxicity.

[2] = system: P. berghei liver schizonts; assay: GHPB dose-response confirmation, FLAR luciferase endpoint; assay type: cell-based, Plasmodium berghei; conditions: for Activity (grouping in dose-response confirmation runs): grouped as selectively active, active but with low selectivity, nonselective or inactive
Experimental: A total of 35 compounds were identified for resupply of fresh powder for confirmation in dose–response assays. […] Powders were diluted to 50 mM in DMSO and plated in 1000 × source plates as described above. MMV390048 and puromycin were plated as the positive control for P. berghei liver schizont activity and cytotoxicity, respectively. Two independent experiments using 1 × FLAR and 5 × 10^3 cells/well were performed to assess the potency of these compounds against P. berghei liver schizonts, each with an independent production run of P. berghei sporozoites. […] Separately, two independent runs of the HepG2 cultured in galactose, assayed as described above, were used to assess the cytotoxicity potency and selectivity indices for these compounds. Both P. berghei liver schizont and HepG2 cytotoxicity data were loaded into CDD Vault for normalization, curve fitting, and EC50 calculations as described above. Receiver-operator characteristic (ROC) curves were generated using Graphpad Prism and area under the curve (AUC) was calculated using the Wilson/Brown method for both P. berghei liver schizont activity and HepG2 cytotoxicity.

[3] = system: P. berghei liver schizonts; assay: GHPB single point primary screen, FLAR luciferase endpoint; assay type: cell-based, Plasmodium berghei; conditions: 1 µM; for activity and selectivity in the primary screens: hit = > 80% inhibition of P. berghei and < 15% inhibition of HepG2
Experimental: The GHPB is an open-access collection of compounds (80 for vector control, 80 for zoonotic and neglected diseases, 80 for drug resistant malaria) obtained from MMV. The library was supplied in a 96-well microtitre plate and moved into a low-volume 384-well plate (Greiner Bio-One, cat 784,261) using a Biomek NXp to transfer 5 μL of 1 mM compound into the destination wells. MMV390048 (1 µM) was used for the positive control wells and DMSO (0.1% v/v) was used for the negative control wells. The GHPB was screened by seeding 5 × 10^3 cells/well which, after 24 h, were infected with a maximum available inoculum of 1.44 × 10^3 sporozoites/well. Three hours post-infection, plates were treated with a pin tool as described above. After 44 h, media was dumped from the plate, lysed using the freeze/thaw method, and luciferase signal was detected with 1 × FLAR as described above.

[4] = system: P. berghei liver schizonts; design: method as in PMID 30523084; conditions: read-out: EC50 against P. berghei liver schizonts (reported); cited from earlier work

Structure (SMILES)	HepG2 Cytotoxicity (pEC50 ± SD) [1]	Activity (grouping in dose-response confirmation runs) [2]	activity and selectivity in the primary screens [3]	EC50 [4]	EC50 ([2]; dose-response confirmation, FLAR, read-out: EC50 against P. berghei liver schizonts)	inhibition of P. berghei liver schizonts in the primary screen ([3]; 44 h)
CCOc1ccccc1NC(=O)Cn1c(=O)n(Cc2ccccc2)c(=O)c2c(C)c(C(=O)N(C)C)sc21 [MMV006430]	4.94 ± 0.06					
O=C(Nc1ncccc1O)c1ccc(N2CCOCC2)nc1 [MMV1103183]	5.03 ± 0.02	active and selective	active and selective			
Cn1cc(CN2CCc3c(c(C(=O)NCc4nccs4)nn3Cc3ccccc3)C2)c2ccccc21 [MMV1167451]				6300 nM		
CCCOc1ccc(C(F)(F)F)cc1NC(=O)c1nc2nccc(C)n2n1 [MMV1262756]				105 nM		
Cn1ccnc1SCC(=O)Nc1ccc(C(=O)Nc2ncccc2O)cc1 [MMV1267536]	4.83 ± 0.26	active and selective	not considered hits		127 nM	69.1%
